Laboratory results reported in ChEMBL document CHEMBL1201862, “PubChem BioAssay data set” (2004).
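Where inhibition never reached the appropriate level, the endpoint shown equals the highest concentration tested. Otherwise, values were interpolated linearly from a five-concentration, 48-hour dose response in 96-well plates. Abbreviation: GI50, concentration required for 50% inhibition of growth.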 Calls of active or inactive are those of the source. No stated cut-off is given here; in the data, active = GI50 up to about 1.1 µM and inactive = higher. Where a SMILES comes first, the peptide text is derived from it. The star is where a group is joined. OSu = O=C1CCC(=O)N1O*; OBn = c1ccc(CO*)cc1; Bn = c1ccc(C*)cc1

Key:
Assay in all cases: DTP human tumour cell line panel, 48 h
SK-MEL-2 = system: SK-MEL-2
NCI-H226 = system: NCI-H226
IGROV-1 = system: IGROV-1
SNB-19 = system: SNB-19
OVCAR-5 = system: OVCAR-5
EKVX = system: EKVX
UACC-257 = system: UACC-257
SF-268 = system: SF-268
UO-31 = system: UO-31
CCRF-CEM = system: CCRF-CEM
RXF 393 = system: RXF 393
SR = system: SR
TK-10 = system: TK-10
NCI-H522 = system: NCI-H522
KM12 = system: KM12
HCT-15 = system: HCT-15
NCI/ADR-RES = system: NCI/ADR-RES
MDA-MB-435 = system: MDA-MB-435
DU-145 = system: DU-145

SMILES	GI50 (SK-MEL-2)	GI50 (NCI-H226)	GI50 (IGROV-1)	GI50 (SNB-19)	GI50 (OVCAR-5)	GI50 (EKVX)	GI50 (UACC-257)	GI50 (SF-268)	GI50 (UO-31)	GI50 (CCRF-CEM)	GI50 (RXF 393)	GI50 (SR)	GI50 (TK-10)	GI50 (NCI-H522)	GI50 (KM12)	GI50 (HCT-15) [µM]	GI50 (NCI/ADR-RES)	GI50 (MDA-MB-435)	GI50 (DU-145)
NC(=O)N/N=C(\Cc1nc2ccc(C(=O)c3ccccc3)cc2nc1O)C(=O)Nc1ccc(Br)cc1	> 100 µM (inactive)	86.3 µM (inactive)	> 100 µM (inactive)	> 100 µM (inactive)	> 100 µM (inactive)	> 100 µM (inactive)	> 100 µM (inactive)	> 100 µM (inactive)	> 100 µM (inactive)	> 100 µM (inactive)	> 100 µM (inactive)	> 100 µM (inactive)	> 100 µM (inactive)	> 100 µM (inactive)	> 100 µM (inactive)	> 100			
CC(C)CC(NC(=O)C(N)CCC(=O)OCc1ccccc1)C(=O)NC(COCc1ccccc1)C(=O)NC(Cc1ccccc1)C(=O)ON1C(=O)CCC1=O (stereo unspecified) (H-E(OBn)LS(Bn)F-OSu; configuration not given here)	30.8 µM (inactive)		23.4 µM (inactive)	30.5 µM (inactive)	28.8 µM (inactive)	32.1 µM (inactive)	28.3 µM (inactive)	48.3 µM (inactive)	23.6 µM (inactive)	26.6 µM (inactive)	21.8 µM (inactive)	28.6 µM (inactive)	26.7 µM (inactive)	18.5 µM (inactive)	32.1 µM (inactive)		28.5 µM (inactive)	33 µM (inactive)	27.7 µM (inactive)
CCOC(=O)c1cc2c(nc1N)-c1ncccc1CC2	> 100 µM (inactive)	66.2 µM (inactive)	49.4 µM (inactive)	59.7 µM (inactive)	> 100 µM (inactive)	43.8 µM (inactive)	38.5 µM (inactive)	> 100 µM (inactive)	88.1 µM (inactive)	20.4 µM (inactive)	> 100 µM (inactive)	18.7 µM (inactive)	> 100 µM (inactive)	33.4 µM (inactive)	49.9 µM (inactive)	32			
CCc1cccc(C)c1NC(=O)CCc1nnc(S)[nH]1	> 100 µM (inactive)	> 100 µM (inactive)	> 100 µM (inactive)	> 100 µM (inactive)	> 100 µM (inactive)	> 100 µM (inactive)	> 100 µM (inactive)	> 100 µM (inactive)	> 100 µM (inactive)	> 100 µM (inactive)	> 100 µM (inactive)	> 100 µM (inactive)	> 100 µM (inactive)	> 100 µM (inactive)	> 100 µM (inactive)	> 100			
c1csc(-c2nn3c(C45CC6CC(CC(C6)C4)C5)nnc3s2)c1	> 100 µM (inactive)	> 100 µM (inactive)	> 100 µM (inactive)	> 100 µM (inactive)	> 100 µM (inactive)	> 100 µM (inactive)	> 100 µM (inactive)	> 100 µM (inactive)	47.5 µM (inactive)	> 100 µM (inactive)	> 100 µM (inactive)	> 100 µM (inactive)		> 100 µM (inactive)		> 100	> 100 µM (inactive)	> 100 µM (inactive)	> 100 µM (inactive)
O=C(Nc1ccc([N+](=O)[O-])cc1)C1C(=O)C(=O)N(c2ccc([N+](=O)[O-])cc2)C1=O (stereo unspecified)	> 100 µM (inactive)	> 100 µM (inactive)	> 100 µM (inactive)	> 100 µM (inactive)	> 100 µM (inactive)	> 100 µM (inactive)	> 100 µM (inactive)	> 100 µM (inactive)	78 µM (inactive)	> 100 µM (inactive)	> 100 µM (inactive)	59 µM (inactive)	> 100 µM (inactive)	55.8 µM (inactive)	> 100 µM (inactive)	61.1			
Cc1ccc(S(=O)(=O)NC(=O)Nc2ccc(C(=O)O)c(O)c2)cc1	> 100 µM (inactive)	> 100 µM (inactive)		> 100 µM (inactive)	> 100 µM (inactive)	> 100 µM (inactive)		> 100 µM (inactive)	> 100 µM (inactive)	> 100 µM (inactive)	> 100 µM (inactive)	> 100 µM (inactive)	> 100 µM (inactive)		> 100 µM (inactive)	> 100	> 100 µM (inactive)	> 100 µM (inactive)	> 100 µM (inactive)
O=C(O)CCC(NC(=O)c1ccc(CNc2nc3ccccc3nc2C(=O)O)cc1)C(=O)O (stereo unspecified)	> 100 µM (inactive)	> 100 µM (inactive)	> 100 µM (inactive)	> 100 µM (inactive)	> 100 µM (inactive)	> 100 µM (inactive)	> 100 µM (inactive)	> 100 µM (inactive)	> 100 µM (inactive)	> 100 µM (inactive)		> 100 µM (inactive)	> 100 µM (inactive)		> 100 µM (inactive)	> 100	> 100 µM (inactive)	> 100 µM (inactive)	> 100 µM (inactive)
CCN(CCCl)CCNc1c2ccccc2nc2ccc(OC)cc12	1.03 µM (active)	0.6 µM (active)	0.463 µM (active)	1.41 µM (inactive)	1.36 µM (inactive)	1.27 µM (inactive)	1.52 µM (inactive)	0.454 µM (active)	1.44 µM (inactive)	0.104 µM (active)	0.54 µM (active)		1.58 µM (inactive)	0.33 µM (active)	0.603 µM (active)	0.731	1.35 µM (inactive)		
CC(C)c1cccc(C(C)C)c1NC(=O)C(=O)C(C(=O)c1ccccc1-c1ccccc1)C1OC(=O)c2ccccc21 (stereo unspecified)	14.9 µM (inactive)	> 10 µM (inactive)	24.3 µM (inactive)	16.8 µM (inactive)	18.5 µM (inactive)	> 10 µM (inactive)	12.6 µM (inactive)	21.7 µM (inactive)	18.7 µM (inactive)	13.8 µM (inactive)	12.9 µM (inactive)	22.6 µM (inactive)	26.5 µM (inactive)	15.5 µM (inactive)	16.7 µM (inactive)	18.4			
CC(=O)CCCCCCCCCCCC[C@@H]1CC[C@H](C)[C@H](O)N1	> 100 µM (inactive)	> 100 µM (inactive)	> 100 µM (inactive)	> 100 µM (inactive)	> 100 µM (inactive)	> 100 µM (inactive)	> 100 µM (inactive)	> 100 µM (inactive)	67.1 µM (inactive)	> 100 µM (inactive)	> 100 µM (inactive)	90.4 µM (inactive)	> 100 µM (inactive)	> 100 µM (inactive)	> 100 µM (inactive)	> 100			
CN1C(CC(O)c2ccccc2)CCCC1CC(O)(c1ccccc1)c1ccccc1 (stereo unspecified)		21.1 µM (inactive)	17.2 µM (inactive)	17.1 µM (inactive)	15 µM (inactive)	26.4 µM (inactive)	17.6 µM (inactive)	18.7 µM (inactive)	8.36 µM (inactive)	19.8 µM (inactive)	14.9 µM (inactive)	18.7 µM (inactive)	18.5 µM (inactive)	19.9 µM (inactive)	18.5 µM (inactive)	16.5	16.9 µM (inactive)		20.8 µM (inactive)
